Usually IC50 stands for the concentration that gives 50% inhibition.

SMILES strings stand for the structures.

This passage reports IC50 results from patent US8022206B2 (OSI Pharmaceuticals, LLC, priority 2008, dated 2011).

The target of one assay is MET (human) (Homo sapiens, UniProt P08581). Nature of the assay: MET (human) AlphaScreen kinase assay, Km of ATP. It counts as biochemical. The conditions noted are these: AlphaScreen, Km of ATP; read-out: Met biochemical IC50. The procedure, abridged:
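Human MET at lot-optimised concentration in 50 mM Tris pH 7.4 buffer with 1 mM DTT, compound at 1% DMSO final; enzyme starts the reaction, 60 min at RT.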

The next assay concerns the target RON (human) (Homo sapiens, UniProt Q04912). As to the kind of experiment: RON (human) AlphaScreen kinase assay, Km of ATP. It counts as biochemical. The following applies: AlphaScreen, Km of ATP; read-out: RON biochemical IC50. Put shortly:
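Reaction was started with enzyme and run 30 min at RT. PT66 donor/acceptor beads in an EDTA-containing Tris pH 7.5 buffer were then added, and the signal was read after 1 h.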
On the technique in general: In Alpha technology, singlet oxygen from a donor bead excites a nearby acceptor bead.

Chain of MET (human) (P08581 25-1390): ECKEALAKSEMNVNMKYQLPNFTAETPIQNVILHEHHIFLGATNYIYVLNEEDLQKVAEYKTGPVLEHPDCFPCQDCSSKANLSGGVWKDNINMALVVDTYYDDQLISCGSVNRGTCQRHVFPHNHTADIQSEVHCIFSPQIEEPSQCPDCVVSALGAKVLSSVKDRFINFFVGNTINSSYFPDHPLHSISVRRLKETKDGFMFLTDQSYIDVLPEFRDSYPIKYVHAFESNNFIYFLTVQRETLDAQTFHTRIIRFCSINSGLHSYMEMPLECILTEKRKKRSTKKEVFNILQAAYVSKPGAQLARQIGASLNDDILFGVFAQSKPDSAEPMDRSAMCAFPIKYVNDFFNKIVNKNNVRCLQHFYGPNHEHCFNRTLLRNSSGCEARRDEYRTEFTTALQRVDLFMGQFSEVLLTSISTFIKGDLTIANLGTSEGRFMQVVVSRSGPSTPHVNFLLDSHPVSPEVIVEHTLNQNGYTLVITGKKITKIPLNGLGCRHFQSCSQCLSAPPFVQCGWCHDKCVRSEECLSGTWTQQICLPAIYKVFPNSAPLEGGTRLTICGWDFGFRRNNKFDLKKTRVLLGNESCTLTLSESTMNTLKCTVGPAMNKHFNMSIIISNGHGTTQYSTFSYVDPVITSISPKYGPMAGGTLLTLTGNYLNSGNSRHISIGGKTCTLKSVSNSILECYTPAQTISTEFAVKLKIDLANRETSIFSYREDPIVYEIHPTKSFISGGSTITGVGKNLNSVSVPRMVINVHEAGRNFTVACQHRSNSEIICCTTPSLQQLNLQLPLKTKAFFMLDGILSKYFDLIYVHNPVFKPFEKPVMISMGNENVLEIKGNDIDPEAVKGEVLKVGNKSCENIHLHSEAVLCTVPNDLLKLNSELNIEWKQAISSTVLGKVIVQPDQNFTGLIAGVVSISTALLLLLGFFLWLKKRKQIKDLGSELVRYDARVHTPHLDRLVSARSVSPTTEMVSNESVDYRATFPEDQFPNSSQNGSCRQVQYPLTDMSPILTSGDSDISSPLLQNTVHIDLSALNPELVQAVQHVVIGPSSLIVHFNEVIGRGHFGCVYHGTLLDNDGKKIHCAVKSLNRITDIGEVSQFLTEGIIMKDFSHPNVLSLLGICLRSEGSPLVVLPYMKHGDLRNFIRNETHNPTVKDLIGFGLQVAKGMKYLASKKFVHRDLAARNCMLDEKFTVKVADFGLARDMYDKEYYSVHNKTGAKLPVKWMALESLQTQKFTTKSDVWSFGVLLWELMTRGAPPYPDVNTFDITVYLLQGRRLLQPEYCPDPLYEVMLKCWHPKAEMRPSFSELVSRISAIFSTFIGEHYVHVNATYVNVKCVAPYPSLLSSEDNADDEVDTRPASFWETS
Chain of RON (human) (Q04912 25-1400): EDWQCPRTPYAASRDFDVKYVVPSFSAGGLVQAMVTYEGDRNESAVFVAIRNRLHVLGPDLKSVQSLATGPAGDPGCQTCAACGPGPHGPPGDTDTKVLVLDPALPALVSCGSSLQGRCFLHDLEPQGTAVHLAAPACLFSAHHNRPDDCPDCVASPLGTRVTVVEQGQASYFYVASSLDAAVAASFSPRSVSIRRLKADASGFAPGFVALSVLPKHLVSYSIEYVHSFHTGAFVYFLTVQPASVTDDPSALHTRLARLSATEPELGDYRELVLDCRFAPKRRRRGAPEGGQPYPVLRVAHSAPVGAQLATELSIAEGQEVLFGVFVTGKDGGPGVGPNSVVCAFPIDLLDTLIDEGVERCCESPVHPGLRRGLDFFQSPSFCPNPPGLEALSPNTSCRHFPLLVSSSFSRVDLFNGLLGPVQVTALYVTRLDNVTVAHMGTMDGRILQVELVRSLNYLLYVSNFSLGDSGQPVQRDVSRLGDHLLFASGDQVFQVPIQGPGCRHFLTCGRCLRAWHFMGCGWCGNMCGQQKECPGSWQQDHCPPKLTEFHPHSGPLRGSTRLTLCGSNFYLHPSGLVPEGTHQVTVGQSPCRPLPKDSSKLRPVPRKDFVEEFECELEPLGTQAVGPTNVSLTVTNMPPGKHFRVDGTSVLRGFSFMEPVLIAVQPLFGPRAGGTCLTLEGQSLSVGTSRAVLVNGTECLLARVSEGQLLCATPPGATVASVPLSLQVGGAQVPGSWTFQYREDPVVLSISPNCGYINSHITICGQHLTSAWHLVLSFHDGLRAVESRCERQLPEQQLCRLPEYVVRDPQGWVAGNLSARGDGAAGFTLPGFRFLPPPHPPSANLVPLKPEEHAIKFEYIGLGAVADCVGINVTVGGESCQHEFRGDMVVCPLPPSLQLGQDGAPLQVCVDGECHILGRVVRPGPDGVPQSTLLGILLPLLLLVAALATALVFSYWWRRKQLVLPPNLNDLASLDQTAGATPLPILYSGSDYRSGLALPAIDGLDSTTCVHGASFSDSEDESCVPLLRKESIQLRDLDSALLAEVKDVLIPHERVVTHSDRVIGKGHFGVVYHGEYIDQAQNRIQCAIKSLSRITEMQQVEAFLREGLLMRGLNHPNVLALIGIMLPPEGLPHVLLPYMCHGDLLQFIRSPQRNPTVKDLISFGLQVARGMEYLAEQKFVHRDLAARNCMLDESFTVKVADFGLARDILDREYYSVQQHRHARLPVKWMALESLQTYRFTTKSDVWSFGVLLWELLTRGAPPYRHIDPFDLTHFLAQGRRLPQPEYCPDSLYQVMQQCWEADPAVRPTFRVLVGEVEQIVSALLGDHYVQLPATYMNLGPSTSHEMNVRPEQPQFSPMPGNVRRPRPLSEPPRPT

In the case of `C[C@@H](Oc1c(N)ncc2c(C(=O)NCC3CCN(C)CC3)coc12)c1c(Cl)ccc(F)c1Cl` [Example 185, 6-Amino-7-[(R)-1-(2,6-dichloro-3-fluorophenyl)ethoxy]furo[3,2-c]pyridine-3-carboxylic acid (1-methylpiperidin-4-ylmethyl)amide], the IC50 at MET (human) was under 500 nM; at RON (human), 500 to 5000 nM.

Regarding `CC(C)N1CC=C(c2coc3c(O[C@H](C)c4c(Cl)ccc(F)c4Cl)c(N)ncc23)CC1` [Example 45, 7-[(R)-1-(2,6-Dichloro-3-fluorophenyl)-ethoxy]-3-(1-isopropyl-1,2,3,6-tetrahydropyridin-4-yl)-furo[3,2-c]pyridin-6-ylamine], the IC50 on MET (human) and at RON (human) was under 500 nM throughout.

For the molecule `C[C@@H](Oc1c(N)ncc2c(C3=CCN(C(=O)OC4CCCC4)CC3)coc12)c1c(Cl)ccc(F)c1Cl` [Example 54, 4-{6-Amino-7-[(R)-1-(2,6-dichloro-3-fluorophenyl)-ethoxy]-furo[3,2-c]pyridin-3-yl}-3,6-dihydro-2H-pyridine-1-carboxylic acid cyclopentyl ester], the IC50 at MET (human) and at RON (human) was 500 to 5000 nM throughout.

`C[C@@H](Oc1c(N)ncc2c(C3=CCN(C(=O)[C@@H](N)c4ccccc4)CC3)coc12)c1c(Cl)ccc(F)c1Cl` [Example 261, (2S)-2-Amino-1-[4-{6-amino-7-[(1R)-1-(2,6-dichloro-3-fluoro-phenyl)ethoxy]furo[3,2-c]pyridin-3-yl}-3,6-dihydropyridin-1(2H)-yl]-2-phenylethanone]: the IC50 is under 500 nM on MET (human) and 500 to 5000 nM on RON (human).

On to `CC(Oc1c(N)ncc2c(-c3cnn(C4CCNCC4)c3)coc12)c1ccc(Cl)c(F)c1` (stereo not shown) [Example 381, 7-[1-(4-Chloro-3-fluorophenyl)ethoxy]-3-(1-piperidin-4-yl-1H-pyrazol-4-yl)furo[3,2-c]pyridin-6-ylamine], for which the concentration for half-maximal inhibition (IC50) on MET (human) and on RON (human) was under 500 nM throughout.

In the case of `C[C@@H](Oc1c(N)ncc2c(C3=CCN(C(=O)c4cnc[nH]4)CC3)coc12)c1c(Cl)ccc(F)c1Cl` [Example 233, (4-{6-Amino-7-[(R)-1-(2,6-dichloro-3-fluorophenyl)ethoxy]-furo[3,2-c]pyridin-3-yl}-3,6-dihydro-2H-pyridin-1-yl)-(3H-imidazol-4-yl)-methanone], the IC50 at MET (human) and on RON (human) was 500 to 5000 nM in each case.

In the case of `C[C@@H](Oc1c(N)ncc2c(C3=CCCN(C(N)=O)C3)coc12)c1c(Cl)ccc(F)c1Cl` [Example 143, 5-{6-Amino-7-[(R)-1-(2,6-dichloro-3-fluorophenyl)ethoxy]furo[3,2-c]pyridin-3-yl}-3,6-dihydro-2H-pyridine-1-carboxamide], the figures for the IC50 on MET (human) and on RON (human) were under 500 nM and 500 to 5000 nM, respectively.

As to `CC(Oc1c(N)ncc2c(-c3cnn(C4CCNCC4)c3)coc12)c1ccc(Cl)cc1Cl` (stereo not shown) [Example 382, 7-[1-(2,4-Dichlorophenyl)ethoxy]-3-(1-piperidin-4-yl-1H-pyrazol-4-yl)furo[3,2-c]pyridin-6-ylamine], the results for the IC50 on MET (human) and on RON (human) were under 500 nM and 500 to 5000 nM, respectively.

`CC(=O)Nc1ccc(-c2coc3c(O[C@H](C)c4c(Cl)ccc(F)c4Cl)c(N)ncc23)cn1` [Example 120, N-(5-{6-Amino-7-[(R)-1-(2,6-dichloro-3-fluorophenyl)ethoxy]furo[3,2-c]pyridin-3-yl}pyridin-2-yl)acetamide]: the IC50 on MET (human) and at RON (human) was 500 to 5000 nM each time.

For the molecule `Nc1ncc2ccoc2c1OCc1nnc2ccc(-c3ccccc3)nn12` [Example 473, 7-[(6-phenyl[1,2,4]triazolo[4,3-b]pyridazin-3-yl)methoxy]furo[3,2-c]pyridin-6-amine], the values for the IC50 on MET (human) and on RON (human) were 500 to 5000 nM and over 20000 nM, respectively.

Take `CC(C)CC(Oc1c(N)ncc2c(-c3cnn(C4CCNCC4)c3)coc12)c1c(Cl)ccc(F)c1Cl` (stereo not shown) [Example 366, 7-[1-(2,6-Dichloro-3-fluorophenyl)-3-methylbutoxy]-3-(1-piperidin-4-yl-1H-pyrazol-4-yl)furo[3,2-c]pyridin-6-ylamine]: the IC50 on MET (human) and at RON (human) was 500 to 5000 nM each time.

Regarding `C[C@@H](Oc1c(N)ncc2c(C3=CCSCC3)coc12)c1c(Cl)ccc(F)c1Cl` [Example 139, 7-[(R)-1-(2,6-Dichloro-3-fluorophenyl)-ethoxy]-3-(3,6-dihydro-2H-thiopyran-4-yl)-furo[3,2-c]pyridin-6-ylamine], the IC50 is under 500 nM at MET (human) and 500 to 5000 nM at RON (human).

On to `C[C@@H](Oc1c(N)ncc2c(-c3ccc(C(=O)NCCO)cc3)coc12)c1c(Cl)ccc(F)c1Cl` [Example 287, 4-{6-Amino-7-[(R)-1-(2,6-dichloro-3-fluorophenyl)ethoxy]furo[3,2-c]pyridin-3-yl}-N-(2-hydroxyethyl)benzamide], for which the IC50 on MET (human) and on RON (human) was 500 to 5000 nM each time.

Consider `CC(Oc1c(N)ncc2c(-c3cnn(C4CCNCC4)c3)coc12)c1cccc(-c2cnn(C)c2)c1` (stereo not shown) [Example 448, 7-{1-[3-(1-Methyl-1H-pyrazol-4-yl)phenyl]ethoxy}-3-(1-piperidin-4-yl-1H-pyrazol-4-yl)furo[3,2-c]pyridin-6-ylamine], for which the IC50 at MET (human) and on RON (human) was 500 to 5000 nM in each case.

With `CCC(Oc1c(N)ncc2c(-c3cnn(C4CCNCC4)c3)coc12)c1c(Cl)cccc1Cl` (stereo not shown) [Example 340, 7-[1-(2,6-Dichlorophenyl)propoxy]-3-(1-piperidin-4-yl-1H-pyrazol-4-yl)furo[3,2-c]pyridin-6-ylamine], the values for the IC50 at MET (human) and at RON (human) were under 500 nM and 500 to 5000 nM, respectively.

`C[C@@H](Oc1c(N)ncc2c(-c3cnn(C4CCNCC4)c3)c(Br)oc12)c1c(Cl)ccc(F)c1Cl` [Example 167, 2-Bromo-7-[(R)-1-(2,6-dichloro-3-fluorophenyl)ethoxy]-3-(1-piperidin-4-yl-1H-pyrazol-4-yl)-furo[3,2-c]pyridin-6-ylamine]: the IC50 on MET (human) is under 500 nM; on RON (human), 500 to 5000 nM.

Consider `Nc1ncc2ccoc2c1OCc1ccc(NC(=O)c2cccn(-c3ccc(F)cc3)c2=O)cc1` [Example 461, 1-(4-Fluorophenyl)-2-oxo-1,2-dihydropyridine-3-carboxylic acid [4-(6-aminofuro[3,2-c]pyridin-7-yloxymethyl)phenyl]amide], for which the IC50 on MET (human) was 500 to 5000 nM; at RON (human), over 20000 nM.

Take `CC(C)NC(=O)N1CC=C(c2coc3c(O[C@H](C)c4c(Cl)ccc(F)c4Cl)c(N)ncc23)CC1` [Example 149, 4-{6-Amino-7-[(1R)-1-(2,6-dichloro-3-fluorophenyl)ethoxy]furo[3,2-c]pyridin-3-yl}-N-(propan-2-yl)-3,6-dihydropyridine-1(2H)-carboxamide]: the IC50 on MET (human) is under 500 nM; at RON (human), 500 to 5000 nM.

Consider `CC(Oc1c(N)ncc2c(-c3cnn(C4CCNCC4)c3)coc12)c1c(Cl)c(F)cc(OCCCN)c1Cl` (stereo not shown) [Example 155, 7-{1-[3-(3-Aminopropoxy)-2,6-dichloro-5-fluorophenyl]ethoxy}-3-[1-(piperidin-4-yl)-1H-pyrazol-4-yl]furo[3,2-c]pyridin-6-amine], for which the half-maximal inhibitory concentration (IC50) at MET (human) and at RON (human) was under 500 nM in each case.

As to `CCCS(=O)(=O)Nc1cccc(-c2coc3c(O[C@H](C)c4c(Cl)ccc(F)c4Cl)c(N)ncc23)c1` [Example 244, Propane-1-sulfonic acid (3-{6-amino-7-[(R)-1-(2,6-dichloro-3-fluorophenyl)ethoxy]-furo[3,2-c]pyridin-3-yl}phenyl)amide], the IC50 at MET (human) and at RON (human) was 500 to 5000 nM each time.

As to `C[C@@H](Oc1c(N)ncc2c(C3=CCN(C(=O)[C@H]4CCNC4)CC3)coc12)c1c(Cl)ccc(F)c1Cl` [Example 237, (4-{6-Amino-7-[(R)-1-(2,6-dichloro-3-fluorophenyl)ethoxy]-furo[3,2-c]pyridin-3-yl}-3,6-dihydro-2H-pyridin-1-yl)-(S)-pyrrolidin-3-ylmethanone], the IC50 at MET (human) and on RON (human) was under 500 nM in each case.

Regarding `C[C@@H](Oc1c(N)ncc2c(-c3cccc(C(=O)N4CCN(CCO)CC4)c3)coc12)c1c(Cl)ccc(F)c1Cl` [Example 98, (3-{6-Amino-7-[(R)-1-(2,6-dichloro-3-fluorophenyl)ethoxy]-furo[3,2-c]pyridin-3-yl}phenyl)-[4-(2-hydroxyethyl)piperazin-1-yl]methanone], the IC50 on MET (human) is under 500 nM; on RON (human), 500 to 5000 nM.

For `Cc1csc(-c2coc3c(O[C@H](C)c4c(Cl)ccc(F)c4Cl)c(N)ncc23)c1` [Example 115, 7-[(R)-1-(2,6-Dichloro-3-fluorophenyl)ethoxy]-3-(4-methylthiophen-2-yl)furo[3,2-c]pyridin-6-ylamine], the IC50 at MET (human) and at RON (human) was 500 to 5000 nM each time.

In the case of `CCNC(=O)c1cc(-c2coc3c(O[C@H](C)c4c(Cl)ccc(F)c4Cl)c(N)ncc23)cs1` [Example 314, 4-{6-Amino-7-[(R)-1-(2,6-dichloro-3-fluorophenyl)ethoxy]furo[3,2-c]pyridin-3-yl}-thiophene-2-carboxylic acid Ethylamide], the IC50 at MET (human) and on RON (human) was 500 to 5000 nM in each case.

Turning to `C[C@@H](Oc1c(N)ncc2c(-c3ccc(CO)cc3)coc12)c1c(Cl)ccc(F)c1Cl` [Example 64, (4-{6-Amino-7-[(R)-1-(2,6-dichloro-3-fluorophenyl)ethoxy]-furo[3,2-c]pyridin-3-yl}-phenyl)methanol], the IC50 on MET (human) and at RON (human) was 500 to 5000 nM in each case.

For `CC(Oc1c(N)ncc2c(-c3cnn(C4CCNCC4)c3)coc12)c1ccc(Br)cc1` (stereo not shown) [Example 388, 7-[1-(4-Bromophenyl)ethoxy]-3-(1-piperidin-4-yl-1H-pyrazol-4-yl)furo[3,2-c]pyridin-6-ylamine], the IC50 on MET (human) is under 500 nM; on RON (human), 500 to 5000 nM.
